# Laboratory results as given in patent US20130040944A1, “MGLUR4 ALLOSTERIC POTENTIATORS, COMPOSITIONS, AND METHODS OF TREATING NEUROLOGICAL DYSFUNCTION” (VANDERBILT UNIVERSITY, priority 2009, published 2013).
# Molecular target: human mGluR4 (Homo sapiens, UniProt Q14833)
# Experiment: potentiation of human mGluR4 in transfected CHO cells, Ca2+-sensitive dye fluorescence, EC20 agonist
# Settings: CHO, read-out: % Glu Max
# Sequence of human mGluR4 (Q14833 33-912): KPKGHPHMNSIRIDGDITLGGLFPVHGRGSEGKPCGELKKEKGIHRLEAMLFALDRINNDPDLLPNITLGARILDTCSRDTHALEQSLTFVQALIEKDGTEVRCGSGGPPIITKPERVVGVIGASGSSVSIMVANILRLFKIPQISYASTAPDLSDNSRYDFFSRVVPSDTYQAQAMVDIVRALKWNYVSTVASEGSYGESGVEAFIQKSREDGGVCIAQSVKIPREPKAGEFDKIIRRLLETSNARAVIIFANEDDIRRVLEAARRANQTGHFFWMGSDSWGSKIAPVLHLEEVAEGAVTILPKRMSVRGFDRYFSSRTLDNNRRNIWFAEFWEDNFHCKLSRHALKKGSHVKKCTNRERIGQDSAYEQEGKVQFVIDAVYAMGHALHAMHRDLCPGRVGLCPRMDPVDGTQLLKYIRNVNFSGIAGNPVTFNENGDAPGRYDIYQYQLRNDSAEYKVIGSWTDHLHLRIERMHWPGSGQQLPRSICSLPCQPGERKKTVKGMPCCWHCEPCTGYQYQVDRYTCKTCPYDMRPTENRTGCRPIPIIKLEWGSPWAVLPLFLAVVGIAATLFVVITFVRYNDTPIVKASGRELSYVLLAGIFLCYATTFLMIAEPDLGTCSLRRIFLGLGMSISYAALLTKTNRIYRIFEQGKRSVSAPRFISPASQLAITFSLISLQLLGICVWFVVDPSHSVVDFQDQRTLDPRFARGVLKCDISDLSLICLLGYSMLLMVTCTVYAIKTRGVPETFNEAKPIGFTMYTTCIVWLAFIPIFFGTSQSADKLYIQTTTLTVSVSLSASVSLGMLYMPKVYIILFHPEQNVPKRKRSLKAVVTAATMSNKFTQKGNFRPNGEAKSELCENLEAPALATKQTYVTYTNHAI
row,SMILES,Emax
1,N#Cc1cccc(CS(=O)(=O)n2ccc(NC(=O)c3ccccn3)c2)c1 [Example 26],141%
2,O=C(Nc1ccn(S(=O)(=O)c2ccc3ccccc3c2)c1)c1ccccn1 [Example 36],58%
3,"O=C(Nc1ccn(S(=O)(=O)Cc2ccccc2)c1)c1ccccc1 [Example 6, N-(1-(benzylsulfonyl)-1H-pyrrol-3-yl)benzamide]",55%
4,O=C(Nc1ccn(S(=O)(=O)c2ccccc2F)c1)c1ccccn1 [Example 8],116%
5,"O=C(Nc1ccn(S(=O)(=O)c2ccccc2)c1)c1ccccc1 [Example 5, N-(1-(phenylsulfonyl)-1H-pyrrol-3-yl)benzamide]",93%
6,"O=C(Nc1ccn(S(=O)(=O)Cc2ccccc2)c1)c1nccs1 [Example 44, N-(1-(benzylsulfonyl)-1H-pyrrol-3-yl)thiazole-2-carboxamide]",175%

# Same assay, conditions: EC50 (nM), potentiation of EC20 agonist response; Table I
row,SMILES,EC50
1,N#Cc1cccc(CS(=O)(=O)n2ccc(NC(=O)c3ccccn3)c2)c1 [Example 26],5080 nM
2,O=C(Nc1ccn(S(=O)(=O)c2ccc3ccccc3c2)c1)c1ccccn1 [Example 36],> 10000 nM
3,"O=C(Nc1ccn(S(=O)(=O)Cc2ccccc2)c1)c1ccccc1 [Example 6, N-(1-(benzylsulfonyl)-1H-pyrrol-3-yl)benzamide]",951 nM
4,O=C(Nc1ccn(S(=O)(=O)c2ccccc2F)c1)c1ccccn1 [Example 8],174 nM
5,"O=C(Nc1ccn(S(=O)(=O)c2ccccc2)c1)c1ccccc1 [Example 5, N-(1-(phenylsulfonyl)-1H-pyrrol-3-yl)benzamide]",8170 nM
6,"O=C(Nc1ccn(S(=O)(=O)Cc2ccccc2)c1)c1nccs1 [Example 44, N-(1-(benzylsulfonyl)-1H-pyrrol-3-yl)thiazole-2-carboxamide]",4380 nM

# Same assay, conditions: hEC50, human mGluR4 potentiation; unit inferred
row,SMILES,EC50
1,"O=C(Nc1ccn(S(=O)(=O)c2ccc(N3CCCC3=O)cc2)c1)c1ccccn1 [Example 154, N-(1-((4-(2-oxopyrrolidin-1-yl)phenyl)sulfonyl)-1H-pyrrol-3-yl)picolinamide]",543 nM
2,"CC(C)(C)OC(=O)C(c1ccccc1)S(=O)(=O)n1ccc(NC(=O)c2ccccn2)c1 (centres unmarked) [Example 94, tert-butyl 2-phenyl-2-((3-(picolinamido)-1H-pyrrol-1-yl)sulfonyl)acetate]",14500 nM
3,"O=C(Nc1ccn(S(=O)(=O)Cc2ccc(Cl)cc2)c1)c1ccccn1 [Example 95, N-(1-((4-chlorobenzyl)sulfonyl)-1H-pyrrol-3-yl)picolinamide]",336 nM
4,"COc1ccc(S(=O)(=O)n2ccc(NC(=O)c3ccco3)c2)cn1 [Example 168, N-(1-((6-methoxypyridin-3-yl)sulfonyl)-1H-pyrrol-3-yl)furan-2-carboxamide]",2120 nM
5,"O=C(Nc1ccn(S(=O)(=O)Cc2c(F)cccc2F)c1)c1ccccn1 [Example 92, N-(1-((2,6-difluorobenzyl)sulfonyl)-1H-pyrrol-3-yl)picolinamide]",153 nM
6,"Cc1cc(C)c(S(=O)(=O)n2ccc(NC(=O)c3ccccn3)c2)cc1Cl [Example 114, N-(1-((5-chloro-2,4-dimethylphenyl)sulfonyl)-1H-pyrrol-3-yl)picolinamide]",22900 nM
7,"CC(=O)Oc1ccccc1C(=O)Nc1ccn(S(=O)(=O)c2cccc(C)c2)c1 [Example 54, 2-((1-(m-tolylsulfonyl)-1H-pyrrol-3-yl)carbamoyl)phenyl acetate]",1720 nM
8,"COc1ccc(S(=O)(=O)n2ccc(NC(=O)c3ccccn3)c2)cc1 [Example 129, N-(1-((4-methoxyphenyl)sulfonyl)-1H-pyrrol-3-yl)picolinamide]",107 nM
9,"O=C(Nc1ccn(S(=O)(=O)c2cccc(Cl)c2F)c1)c1ccco1 [Example 162, N-(1-((3-chloro-2-fluorophenyl)sulfonyl)-1H-pyrrol-3-yl)furan-2-carboxamide]",2540 nM
10,"Cc1ccc(S(=O)(=O)n2ccc(NC(=O)c3ccccn3)c2)cc1C [Example 82, N-(1-((3,4-dimethylphenyl)sulfonyl)-1H-pyrrol-3-yl)picolinamide]",139 nM
11,"O=C(Nc1ccn(S(=O)(=O)c2ccc(Cl)c(F)c2)c1)c1ccccn1 [Example 103, N-(1-((4-chloro-3-fluorophenyl)sulfonyl)-1H-pyrrol-3-yl)picolinamide]",389 nM
12,"O=C(Nc1ccn(S(=O)(=O)c2ccc(C(F)(F)F)c(F)c2)c1)c1ccccn1 [Example 104, N-(1-((3-fluoro-4-(trifluoromethyl)phenyl)sulfonyl)-1H-pyrrol-3-yl)picolinamide]",4020 nM
13,"O=C(Nc1ccn(S(=O)(=O)c2ccc(F)c(F)c2F)c1)c1ccccn1 [Example 139, N-(1-((2,3,4-trifluorophenyl)sulfonyl)-1H-pyrrol-3-yl)picolinamide]",301 nM
14,"Cc1ccc(C(=O)Nc2ccn(S(=O)(=O)Cc3ccc(Cl)cc3)c2)nc1 [Example 97, N-(1-((4-chlorobenzyl)sulfonyl)-1H-pyrrol-3-yl)-5-methylpicolinamide]",431 nM
15,"Cc1nc(C)c(S(=O)(=O)n2ccc(NC(=O)c3ccccn3)c2)s1 [Example 127, N-(1-((2,4-dimethylthiazol-5-yl)sulfonyl)-1H-pyrrol-3-yl)picolinamide]",2950 nM
16,"O=C(Nc1ccn(S(=O)(=O)c2ccccc2)c1)c1nccs1 [Example 50, N-(1-(phenylsulfonyl)-1H-pyrrol-3-yl)thiazole-2-carboxamide]",2680 nM
17,"COc1cccc(S(=O)(=O)n2ccc(NC(=O)c3ccccn3)c2)c1 [Example 88, N-(1-((3-methoxyphenyl)sulfonyl)-1H-pyrrol-3-yl)picolinamide]",230 nM
18,"O=C(Nc1ccn(S(=O)(=O)c2ccc3occc3c2)c1)c1ccccn1 [Example 150, N-(1-(benzofuran-5-ylsulfonyl)-1H-pyrrol-3-yl)picolinamide]",84.3 nM
19,"CCc1ccc(S(=O)(=O)n2ccc(NC(=O)c3ccccn3)c2)cc1 [Example 122, N-(1-((4-ethylphenyl)sulfonyl)-1H-pyrrol-3-yl)picolinamide]",133 nM
20,"O=C(Nc1ccn(S(=O)(=O)c2ccc(Cl)cn2)c1)c1ccccn1 [Example 121, N-(1-((5-chloropyridin-2-yl)sulfonyl)-1H-pyrrol-3-yl)picolinamide]",162 nM
21,"O=C(Nc1ccn(S(=O)(=O)c2ccc(Cl)nc2)c1)c1ccccn1 [Example 118, N-(1-((6-chloropyridin-3-yl)sulfonyl)-1H-pyrrol-3-yl)picolinamide]",217 nM
22,"CN1CCOc2cc(S(=O)(=O)n3ccc(NC(=O)c4ccccn4)c3)ccc21 [Example 146, N-(1-((4-methyl-3,4-dihydro-2H-benzo[b][1,4]oxazin-7-yl)sulfonyl)-1H-pyrrol-3-yl)picolinamide]",144 nM
23,"O=C(Nc1ccn(S(=O)(=O)c2ccc(Cl)c(Cl)c2)c1)c1ccccn1 [Example 100, N-(1-((3,4-dichlorophenyl)sulfonyl)-1H-pyrrol-3-yl)picolinamide]",466 nM
24,"O=C(Nc1ccn(S(=O)(=O)c2ccc(F)c(F)c2)c1)c1nccs1 [Example 80, N-(1-((3,4-difluorophenyl)sulfonyl)-1H-pyrrol-3-yl)thiazole-2-carboxamide]",1270 nM
25,"CC(c1ccc(Cl)cc1)S(=O)(=O)n1ccc(NC(=O)c2ccccn2)c1 (centres unmarked) [Example 109, N-(1-((1-(4-chlorophenyl)ethyl)sulfonyl)-1H-pyrrol-3-yl)picolinamide]",1890 nM
26,"O=C(Nc1ccn(S(=O)(=O)c2ccc(Cl)c(C(F)(F)F)c2)c1)c1ccccn1 [Example 102, N-(1-((4-chloro-3-(trifluoromethyl)phenyl)sulfonyl)-1H-pyrrol-3-yl)picolinamide]",5120 nM
27,"O=C(Nc1ccn(S(=O)(=O)c2cccc(Cl)c2F)c1)c1ccccn1 [Example 124, N-(1-((3-chloro-2-fluorophenyl)sulfonyl)-1H-pyrrol-3-yl)picolinamide]",84 nM
28,"Cc1cc(S(=O)(=O)n2ccc(NC(=O)c3ccccn3)c2)ccc1Cl [Example 83, N-(1-((4-chloro-3-methylphenyl)sulfonyl)-1H-pyrrol-3-yl)picolinamide]",447 nM
29,"O=C(Nc1ccn(S(=O)(=O)c2cccnc2Cl)c1)c1ccccn1 [Example 137, N-(1-((2-chloropyridin-3-yl)sulfonyl)-1H-pyrrol-3-yl)picolinamide]",3790 nM
